From patent US11191768B2, “Histone acetyltransferase activators and uses thereof” (The Trustees of Columbia University in the City of New York, priority 2014, dated 2021)

Columns and labels:
[1] = cited from earlier work
YAC128 mice = assay: Accelerating rotarod in the YAC128 Huntington disease model; type: in vivo; conditions: YF2 5 mg/kg i.p. daily from age 2 months
Description: HAT activator YF2 (U.S. patent application Ser. No. 13/493,490; herein incorporated by reference in its entirety) was tested in the YAC128 Huntington disease model. Animals were treated with YF2 (5 mg/kg, i.p, daily) or vehicle, starting at the age of 2 months.

| SMILES | Solubility [1] | Rotarod performance of YF2-treated YAC128 mice versus WT mice (YAC128 mice; female mice, 6 months of age, vs WT+YF2 p=0.12734, vs WT+vehicle p=0.1690) | Rotarod performance of YF2-treated YAC128 mice versus WT mice (YAC128 mice; male mice, 4 month old, vs WT+YF2 p=0.1946, vs WT+vehicle p=0.0792) |
| --- | --- | --- | --- |
| CCOc1ccccc1C(=O)Nc1ccc(Cl)c(C(F)(F)F)c1 [CTB] | insoluble |  |  |
| CCCCCCCCCCCCCCCc1cccc(OCC)c1C(=O)Nc1ccc(Cl)c(C(F)(F)F)c1 [CTPB] | insoluble |  |  |
| CCOc1cccc(OCCN(C)C)c1C(=O)Nc1ccc(Cl)c(C(F)(F)F)c1 [YF2] |  | significance was lost | significance was lost |
